This passage reports GI50 and TGI results from PubChem BioAssay (NCI).

Assay in all cases: growth of human tumour cells (NCI), 48 h
Test [1] relates to ACHN renal.
The subject of test [2] is PC-3 prostate.
Test [3] concerns SNB-19 CNS.
The test system of test [4] is TK-10 renal.
Test [5] deals with OVCAR-3 ovarian.
The test system of test [6] is HCT-15 colon.
Test [7] relates to HS 578T breast.
The subject of test [8] is NCI-H522 lung.
The subject of test [9] is HOP-62 NSCLC.
Test [10] relates to OVCAR-8 ovarian.

“And” between values parts separate entries of the source, which are not always exact repeats. Identical values can stand only once.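 Interpolation was linear, between the two tested concentrations surrounding the appropriate level; five concentrations were tested over 48 hours in 96-well plates. At the GI50, growth is halved. At the TGI there is no net growth.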 Bounds are passed on as bounds.

Take `COc1cc(-c2c(C#N)c(N)nc(N3CCOCC3)c2C#N)cc(OC)c1OC`: the GI50 in test [1] was above 100 µM; in test [2], above 100 µM; in test [3], 89.9 µM; in [4] it was above 100 µM; in test [5] it was 68.8 µM; in test [6] it was above 100 µM. Besides, the GI50 is 94 µM in test [7], above 100 µM in [8], 30.9 µM in [9] and above 100 µM in [10]. Moreover, the TGI in test [1], in test [2], in test [3], in test [4], in test [5] and in [6] was above 100 µM each time. The TGI in test [7], in test [8], in test [9] and in test [10] was above 100 µM throughout.

For `CN(C)c1ccc(/C=C/C2=[N+](C)c3ccccc3C2(C)C)cc1`, the GI50 in test [1] was 1.38 µM; in test [2] it was 0.235 µM; in test [3] it was 0.691 µM; in [4], 1.06 µM; in test [5] it was 0.301 µM; in [6], 2.66 µM. The GI50 in [7] is 4.15 µM; in [8], 0.587 µM; in test [9] it was 0.862 µM; in test [10], 0.349 µM. Besides, the TGI is 12.8 µM in test [1]; 13.8 µM in test [2]; 18.4 µM in [3]; 32.5 µM in test [4]; 12.3 µM in test [5]; 18.6 µM in test [6]. The TGI in test [7] is above 100 µM; in test [8] it was 10.1 µM; in test [9], 13.8 µM; in test [10], 12.1 µM.

On to `Oc1cc2ccccc2c(-c2c(O)c(O)cc3ccccc23)c1O`, for which the GI50 in [1] is 0.571 µM; in test [2], 2.17 µM; in test [3] it was 2.75 µM; in [4], 1.38 µM; in [5], 0.825 µM; in test [6], 0.323 µM. The GI50 is 2.9 µM in test [7], 2.31 µM in [8], 1.03 µM in test [9] and 2.16 µM in [10]. For the same compound, the TGI was 21.1 µM in [1]; above 52.2 µM in test [2]; 27.8 µM in [3]; 30.9 µM in [4]; 17.9 µM in test [5]; 14.8 µM in test [6]. Further, the TGI in test [7] is above 44.1 µM; in test [8] it was 21 µM; in test [9], 8.39 µM; in [10] it was above 24 µM.

Take `O=C(Nc1ccc(/C=C/c2ccc(NC(=O)c3cc(S(=O)(=O)O)c4cccnc4c3O)cc2S(=O)(=O)O)c(S(=O)(=O)O)c1)c1cc(S(=O)(=O)O)c2cccnc2c1O`: the GI50 was 3.37 µM in [1]; 32.2 µM in test [2]; 12.2 µM in test [3]; 48.4 µM in test [4]; above 56.9 µM in test [5]; above 41.6 µM in test [6]. For the same compound, the GI50 in test [7] is above 53.1 µM; in [8], 15.3 µM; in [9], 10.9 µM; in [10] it was 9.66 µM. The TGI in [1] was above 15.8 µM; in test [2], above 78.3 µM; in test [3] it was above 100 µM; in test [4], above 71.4 µM; in test [5], above 72.2 µM; in test [6], above 71.5 µM. The TGI is above 74.8 µM in test [7], 47 µM in test [8], above 66.1 µM in test [9] and above 72.4 µM in [10].

With `O=C1c2ccccc2-c2c1c1ccccc1c(=O)n2CCCNCCCCNCCCN1C(=O)c2ccccc2C2C(=O)c3ccccc3C21` (configuration not stated), the GI50 in [1] is 0.0573 µM; in test [2], 0.512 µM; in test [3], 0.57 µM; in [4], 0.614 µM; in test [5], 0.212 µM; in test [6] it was 0.229 µM. Moreover, the GI50 was 0.739 µM in [7], 9.38 µM in [8], 0.273 µM in [9] and 0.0241 µM in [10]. For the same compound, the TGI in test [1] came to 0.762 µM; in [2], 1.24 µM; in [3] it was 1.93 µM; in [4], 1.45 µM; in [5] it was 0.87 µM; in test [6], 0.853 µM. Besides, the TGI in test [7] came out at 2.08 µM; in [8], 50 µM; in test [9] it was 1.08 µM; in test [10] it was 0.986 µM.

For `COc1ccc(/C=C/C(=O)c2ccc(OC)c(OC)c2)cc1O`, the GI50 in test [1] was 6.15 µM; in [2] it was 12.8 µM; in [3] it was 6.42 µM; in test [4] it was 11.4 µM; in [5], 2.56 µM; in [6], 3.41 µM. Also, the GI50 in test [7] was 11 µM; in test [8], 3.42 µM; in test [9] it was 3.61 µM; in test [10], 2.98 µM. Also, the TGI was above 100 µM in test [1]; 39.6 µM in test [2]; 20.8 µM in [3]; 30.4 µM in [4]; 6.31 µM in test [5]; 32.9 µM in test [6]. Moreover, the TGI stood at 90.9 µM in [7], 12.4 µM in [8], 14.5 µM in test [9] and 10.9 µM in [10].

As for `COc1cc([C@@H]2C[C@H]2c2cc(SC)n[nH]2)cc(OC)c1OC`, the GI50 was 30.3 µM in [1]; 18.1 µM in test [2]; 35 µM in test [3]; 22.5 µM in [4]; 13.2 µM in [5]; 22.8 µM in test [6]. In addition, the GI50 in test [7] was 15.1 µM; in test [8], 13.8 µM; in test [9], 5.75 µM; in test [10] it was 14 µM. The TGI in test [1] is above 100 µM; in [2] it was 57.2 µM; in test [3] it was above 100 µM; in [4] it was 52.5 µM; in test [5] it was 30.5 µM; in test [6], 80.2 µM. For the same compound, the TGI in test [7] came to 45.2 µM; in test [8], 37.3 µM; in [9], 28.8 µM; in test [10], 45.1 µM.

Consider `CCCCCCCCC(=O)OCC(CS[As](C)C)OC(=O)CCCCCCCC` (configuration not stated), for which the GI50 was 0.602 µM in test [1]; 2.6 µM in test [2]; 11.5 µM in [3]; 0.364 µM in [4]; 0.191 µM in test [5]; 0.629 µM in test [6]. Also, the GI50 in [7] was 1.39 µM; in [8], 1.11 µM; in test [9], 15.1 µM; in test [10] it was 1.75 µM. The TGI in [1] was found to be 3.62 µM; in test [2], 21.8 µM; in [3], 42.9 µM; in test [4], 3.14 µM; in [5], 0.583 µM; in test [6], 10.4 µM. The TGI in test [9] stood at 53.1 µM; in test [10], 5.3 µM.

Consider `Cc1c(O)c2c(c(O)c1Br)C(=O)C=CC2=O`, for which the GI50 in [1] was 0.489 µM; in test [2], 1.9 µM; in test [4], 0.343 µM; in test [5], 0.241 µM; in test [6] it was 0.451 µM; in test [8] it was 0.179 µM. The GI50 in test [9] was 2.48 µM. In addition, the TGI is 2.2 µM and 1.83 µM in test [1]; 3.19 µM and 5.15 µM in test [2]; 3.74 µM in [3]; 2.55 µM and 1.15 µM in test [4]; 1.9 µM and 0.788 µM in [5]; 1.14 µM and 1.94 µM in [6]. Moreover, the TGI in test [7] was 6.34 µM; in test [8], 0.337 µM and 0.365 µM; in test [9], 2.36 µM and 5.35 µM; in [10], 2.74 µM.

Turning to `COc1ccc(C2C(C)C(=O)C(C)C(c3ccc(OC)cc3)N2N=O)cc1` (configuration not stated), the TGI in test [1] is above 663 µM; in [2], above 1000 µM; in [3], 750 µM and > 873 µM; in [4], 488 µM and 245 µM; in test [5], above 1000 µM; in [6], above 1000 µM. In addition, the TGI in test [7] was 890 µM; in test [8], above 750 µM; in [9], > 80 µM and 60.7 µM and 293 µM; in [10], 750 µM and > 1000 µM. Besides, the GI50 in test [3] was > 71 µM and 73.1 µM; in test [4], 147 µM; in test [5] it was above 750 µM; in test [6], above 750 µM; in [8] it was above 750 µM; in [9] it was 24.8 µM and 23.9 µM. Besides, the GI50 in test [10] was 30.5 µM and 248 µM.

For `C[C@@H](Oc1ccc(C(=O)NS(=O)(=O)C(C)(C)C)cc1C(F)(F)F)c1ccc(Oc2ccccc2)cn1`, the GI50 was 3.59 µM in test [1]; 3.1 µM in [2]; 3.02 µM in [3]; 3.05 µM in test [4]; 1.88 µM in test [5]; 2.53 µM in [6]. Also, the GI50 is 3.27 µM in test [7], 1.3 µM in test [8], 3.61 µM in test [9] and 3.27 µM in test [10]. Also, the TGI in test [1] came to 14.5 µM; in test [2], 16.1 µM; in [3], 14 µM; in test [4], 14.7 µM; in [5] it was 5.47 µM; in test [6] it was 10.5 µM. In addition, the TGI stood at 17.9 µM in [7], 5.63 µM in test [8], 17.7 µM in test [9] and 12.4 µM in test [10].
